Results reported in patent publication US20240308996A1, “PYRIDOPYRIDINES AND DERIVATIVES THEREOF AS SELECTIVE KINASE INHIBITORS” (University of Sharjah, priority 2023, published 2024).

How the values were obtained:
Format in all cases: cell-based
[1] = tested on: OVCAR-4; assay: NCI-60 cell line panel: OVCAR-4; details: Ovarian Cancer
Protocol: (§1) It was carried out at the NCI, Bethesda, MD, USA, utilizing their standard protocol.

[2] = tested on: BT-549; assay: NCI-60 cell line panel: BT-549; details: Breast Cancer
Protocol: as §1

[3] = tested on: HS 578T; assay: NCI-60 cell line panel: HS 578T
Protocol: as §1

[4] = tested on: SF-295; assay: NCI-60 cell line panel: SF-295; details: CNS Cancer
Protocol: as §1

[5] = tested on: HCT-116; assay: NCI-60 cell line panel: HCT-116; details: Colon Cancer
Protocol: as §1

[6] = tested on: HOP-92; assay: NCI-60 cell line panel: HOP-92; set-up: TGI: unit not given here; details: Non-Small Cell Lung Cancer
Protocol: as §1

[7] = tested on: HT29; assay: NCI-60 cell line panel: HT29
Protocol: as §1

[8] = tested on: MCF7; assay: NCI-60 cell line panel: MCF7; details: Breast Cancer
Protocol: as §1

[9] = tested on: NCI-H522; assay: NCI-60 cell line panel: NCI-H522; set-up: TGI: unit not given here; details: Non-Small Cell Lung Cancer
Protocol: as §1

[10] = tested on: 786-0; assay: NCI-60 cell line panel: 786-0; details: Renal Cancer
Protocol: as §1

[11] = tested on: UACC-257; assay: NCI-60 cell line panel: UACC-257; details: Melanoma
Protocol: as §1

[12] = tested on: EKVX; assay: NCI-60 cell line panel: EKVX; details: Non-Small Cell Lung Cancer
Protocol: as §1

[13] = tested on: MOLT-4; assay: NCI-60 cell line panel: MOLT-4; set-up: TGI: unit not given here; details: Leukemia
Protocol: as §1

[14] = tested on: SK-MEL-5; assay: NCI-60 cell line panel: SK-MEL-5; details: Melanoma
Protocol: as §1

[15] = tested on: Hep3B; assay: MTT assay, Hep3B HCC cell line; details: Homo sapiens, 48 h, mean of triplicate assays ± SEM
Protocol: (§2) Two HCC cell lines (Hep3B and HepG2) were used for screening the antiproliferative activity of the synthesized compounds. The cell lines were obtained from the European Collection of Cell Cultures (ECACC, UK) and maintained in Dulbecco's Modified Eagle Medium (DMEM: Sigma-Aldrich) supplemented with 10% fetal bovine serum (FBS) and 1% penicillin/streptomycin and incubated at 37° C. in a 5% CO2 air atmosphere. In addition, WI-38 normal cell line was used to investigate the safety of these compounds.
(§3) MTT assay was conducted to calculate the IC50 of the compounds following the reported procedure . Briefly, the cells were seeded in 96-well tissue culture plates with a density of 5×10^4 cells/well and incubated overnight at 37° C. in a 5% CO2 air atmosphere. […] DMSO was used as a negative control. After 48 h, the media were aspirated, and replaced with media containing 0.5 mg/mL of MTT tetrazolium dye (Sigma-Aldrich) for 2 h at 37° C. Finally, the media were removed and 200 μL of DMSO was added to solubilize the formazan crystals. Absorbance was then measured at 570 nm using Varioskan Flash multimode plate reader (Thermo Scientific, Massachusetts, USA).

[16] = tested on: SNB-19; assay: NCI-60 cell line panel: SNB-19; details: CNS Cancer
Protocol: as §1

[17] = tested on: SN12C; assay: NCI-60 cell line panel: SN12C; details: Renal Cancer
Protocol: as §1

[18] = tested on: NCI-H322M; assay: NCI-60 cell line panel: NCI-H322M; details: Non-Small Cell Lung Cancer
Protocol: as §1

[19] = tested on: MALME-3M; assay: NCI-60 cell line panel: MALME-3M; details: Melanoma
Protocol: as §1

[20] = tested on: MDA-MB-468; assay: NCI-60 cell line panel: MDA-MB-468; details: Breast Cancer
Protocol: as §1

[21] = tested on: SK-MEL-2; assay: NCI-60 cell line panel: SK-MEL-2; set-up: TGI: unit not given here; details: Melanoma
Protocol: as §1

[22] = tested on: PC-3; assay: NCI-60 cell line panel: PC-3; details: Prostate Cancer
Protocol: as §1

[23] = tested on: A549/ATCC; assay: NCI-60 cell line panel: A549/ATCC; details: Non-Small Cell Lung Cancer
Protocol: as §1

[24] = tested on: NCI-H460; assay: NCI-60 cell line panel: NCI-H460; details: Non-Small Cell Lung Cancer
Protocol: as §1

[25] = tested on: OVCAR-3; assay: NCI-60 cell line panel: OVCAR-3; details: Ovarian Cancer
Protocol: as §1

[26] = tested on: COLO 205; assay: NCI-60 cell line panel: COLO 205; set-up: TGI: unit not given here; details: Colon Cancer
Protocol: as §1

[27] = tested on: U251; assay: NCI-60 cell line panel: U251; set-up: TGI: unit not given here
Protocol: as §1

[28] = tested on: HOP-62; assay: NCI-60 cell line panel: HOP-62; details: Non-Small Cell Lung Cancer
Protocol: as §1

[29] = tested on: OVCAR-8; assay: NCI-60 cell line panel: OVCAR-8; details: Ovarian Cancer
Protocol: as §1

[30] = tested on: HepG2; assay: MTT assay, HepG2 HCC cell line; details: Homo sapiens, 48 h, mean of triplicate assays ± SEM
Protocol: as §2, §3

[31] = tested on: UACC-62; assay: NCI-60 cell line panel: UACC-62; details: Melanoma
Protocol: as §1

[32] = tested on: NCI-H23; assay: NCI-60 cell line panel: NCI-H23; details: Non-Small Cell Lung Cancer
Protocol: as §1

[33] = total growth inhibition, in µM (unit assumed)

CCN1CCN(c2ccc(NC(=O)Nc3ccc(-c4cc(C(=O)NC(C)C)c5ncccc5n4)cc3)cc2C(F)(F)F)CC1 [Compound 13f, 2-(4-(3-(4-(4-Ethylpiperazin-1-yl)-3-(trifluoromethyl)phenyl)ureido)phenyl)-N-isopropyl-1,5-naphthyridine-4-carboxamide]
IC50 ([1]; Homo sapiens): 880 nM
TGI [1, 33]: 2.45
TGI ([2]; total growth inhibition): 9570 nM
IC50 ([2]; Homo sapiens): 4830 nM
TGI ([3]; Breast Cancer, HS 578T, total growth inhibition): 3450 nM
IC50 ([3]; Homo sapiens, Hs-578T): 880 nM
TGI ([4]; total growth inhibition, unit assumed): 1140 nM
IC50 ([4]; Homo sapiens): 580 nM
TGI ([5]; total growth inhibition): 1300 nM
IC50 ([5]; Homo sapiens): 640 nM
IC50 ([6]; Homo sapiens): 3140 nM
TGI ([6]; total growth inhibition): 8.29
TGI ([7]; Colon Cancer, total growth inhibition): 1320 nM
IC50 ([7]; Homo sapiens, HT-29, Colon Cancer): 670 nM
TGI ([8]; total growth inhibition): 1500 nM
IC50 ([8]; Homo sapiens): 630 nM
IC50 ([9]; Homo sapiens): 3520 nM
TGI ([9]; total growth inhibition): 8.43
IC50 ([10]; Homo sapiens): 500 nM
TGI ([10]; total growth inhibition): 1030 nM
IC50 ([11]; Homo sapiens): 3450 nM
TGI ([11]; total growth inhibition): 8110 nM
IC50 ([12]; Homo sapiens): 1610 nM
TGI [12, 33]: 5.82
IC50 ([13]; Homo sapiens): 1110 nM
TGI ([13]; total growth inhibition): 30.60
IC50 ([14]; Homo sapiens): 1410 nM
TGI ([14]; total growth inhibition): 5280 nM
IC50 [15]: 1090 ± 140 nM
TGI ([16]; total growth inhibition): 9120 nM
IC50 ([16]; Homo sapiens): 4240 nM
IC50 ([17]; Homo sapiens): 670 nM
TGI ([17]; total growth inhibition): 1380 nM
IC50 ([18]; Homo sapiens): 1850 nM
TGI ([18]; total growth inhibition): 7240 nM
IC50 ([19]; Homo sapiens): 580 nM
TGI [19, 33]: 1.05
TGI ([20]; total growth inhibition): 1850 nM
IC50 ([20]; Homo sapiens): 770 nM
IC50 ([21]; Homo sapiens): 4820 nM
TGI ([21]; total growth inhibition): 9.89
IC50 ([22]; Homo sapiens): 760 nM
TGI ([22]; total growth inhibition): 2100 nM
IC50 ([23]; Homo sapiens): 1140 nM
TGI ([23]; total growth inhibition): 5770 nM
IC50 ([24]; Homo sapiens): 620 nM
TGI ([24]; total growth inhibition): 1180 nM
IC50 ([25]; Homo sapiens): 640 nM
TGI ([25]; total growth inhibition): 1360 nM
TGI ([26]; total growth inhibition): 2.71
IC50 ([26]; Homo sapiens): 930 nM
TGI ([27]; CNS Cancer, total growth inhibition): 4.82
IC50 ([27]; Homo sapiens, U-251, CNS Cancer): 1240 nM
IC50 ([28]; Homo sapiens): 3830 nM
TGI ([28]; total growth inhibition): 8890 nM
IC50 ([29]; Homo sapiens): 5690 nM
TGI [29, 33]: 17.5
IC50 [30]: 460 ± 60 nM
IC50 ([31]; Homo sapiens): 3990 nM
TGI ([31]; total growth inhibition): 8280 nM
IC50 ([32]; Homo sapiens): 2050 nM
TGI ([32]; total growth inhibition): 7270 nM
